Experimental data published in patent US8889591B2, “Herbicidal compositions comprising 4-amino-3-chloro-5-fluoro-6-(4-chloro-2-fluoro-3-methoxyphenyl)pyridine-2-carboxylic acid or a derivative thereof and bromobutide, daimuron, oxaziclomefone or pyributicarb” (Dow Agrosciences LLC, priority 2012, dated 2014).

What was measured:
CYPRO = experiment: In-water applied greenhouse weed control, transplanted paddy rice system; type: in vivo, Cyperus rotundus L.; conditions: in-water application
Procedure: (§1) Weed seeds or nutlets of the desired test plant species were planted in puddled soil (mud) prepared by mixing a shredded, non-sterilized mineral soil (50.5 percent silt, 25.5 percent clay, and 24 percent sand, with a pH of about 7.6 and an organic matter content of about 2.9 percent) and water at a 1:1 volumetric ratio. The prepared mud was dispensed in 365 mL aliquots into 16-ounce (oz.) non-perforated plastic pots with a surface area of 86.59 square centimeters (cm^2) leaving a headspace of 3 centimeters (cm) in each pot. Mud was allowed to dry overnight prior to planting or transplanting. Rice seeds were planted in Sun Gro MetroMix® 306 planting mixture, which typically has a pH of 6.0 to 6.8 and an organic matter content of about 30 percent, in plastic plug trays. Seedlings at the second or third leaf stage of growth were transplanted into 840 mL of mud contained in 32-oz. non-perforated plastic pots with a surface area of 86.59 cm^2 4 days prior to herbicide application. The paddy was created by filling the headspace of the pots with 2.5 to 3 cm of water. When required to ensure good germination and healthy plants, a fungicide treatment and/or other chemical or physical treatment was applied. The plants were grown for 4-22 days in a greenhouse with an approximate 14 h photoperiod which was maintained at about 29° C. during the day and 26° C. during the night. Nutrients were added as Osmocote® (19:6:12, N:P:K+ minor nutrients) at 2 g per 16-oz. pot and 4 g per 32-oz. pot. Water was added on a regular basis to maintain the paddy flood, and supplemental lighting was provided with overhead metal halide 1000-Watt lamps as necessary. The plants were employed for testing when they reached the first through fourth true leaf stage.
(§2) Treatments consisted of the acid or esters of 4-amino-3-chloro-5-fluoro-6-(4-chloro-2-fluoro-3-methoxy-phenyl)pyridine-2-carboxylic acid (compound A) each formulated as an SC and various herbicidal components alone and in combination. Forms of compound A were applied on an acid equivalent basis.
(§3) Other herbicidal components were applied on an active ingredient basis and included daimuron formulated as an EC, bromobutide (technical grade material), and oxaziclomefone (technical grade material).
(§4) Treatment requirements for each compound or herbicidal component were calculated based upon the rates being tested, the concentration of active ingredient or acid equivalent in the formulation, an application volume of 2 mL per component per pot, and an application area of 86.59 cm^2 per pot.
(§5) For formulated compounds, a measured amount was placed in an individual 100 or 200 mL glass vial and was dissolved in a volume of 1.25% (v/v) Agri-Dex® crop oil concentrate to obtain application solutions.
(§6) For technical grade compounds, a weighed amount was placed in an individual 100 to 200 mL glass vial and was dissolved in a volume of acetone to obtain concentrated stock solutions. […] The concentrated stock solutions obtained were diluted with an equivalent volume of an aqueous mixture containing 2.5% (v/v) crop oil concentrate so that the final application solutions contained 1.25% (v/v) crop oil concentrate.
(§7) Applications were made by injecting, with a pipetter, appropriate amounts of the application solutions, individually and sequentially, into the aqueous layer of the paddy. Control plants were treated in the same manner with the solvent blank. Applications were made so that all treated plant material received the same concentrations of acetone and crop oil concentrate.
(§8) The treated plants and control plants were placed in a greenhouse as described above and water was added as needed to maintain a paddy flood. After approximately 3 weeks the condition of the test plants as compared with that of the untreated plants was determined visually and scored on a scale of 0 to 100 percent where 0 corresponds to no injury or growth inhibition and 100 corresponds to complete kill. […]

CYPIR = experiment: Postemergence foliar-applied greenhouse weed control, direct-seeded rice system; type: in vivo, Cyperus iria L.; conditions: Oxaziclomefone 6.25 gai/ha alone
Excerpt: (§9) Seeds or nutlets of the desired test plant species were planted in a soil matrix prepared by mixing a loam or sandy loam soil (e.g., 28.6 percent silt, 18.8 percent clay, and 52.6 percent sand, with a pH of about 5.8 and an organic matter content of about 1.8 percent) and calcareous grit in an 80 to 20 ratio. The soil matrix was contained in plastic pots with a volume of 1 quart and a surface area of 83.6 square centimeters (cm^2). When required to ensure good germination and healthy plants, a fungicide treatment and/or other chemical or physical treatment was applied. The plants were grown for 8-22 days in a greenhouse with an approximate 14 h photoperiod which was maintained at about 29° C. during the day and 26° C. during the night. Nutrients (Peters Excel® 15-5-15 5-Ca 2-Mg and iron chelate) were applied in the irrigation solution as needed and water was added on a regular basis. Supplemental lighting was provided with overhead metal halide 1000-Watt lamps as necessary. The plants were employed for testing when they reached the first through fourth true leaf stage. […]
(§10) Treatment requirements were calculated based upon the rates being tested, the concentration of active ingredient or acid equivalent in the formulation, and a 12 mL application volume at a rate of 187 L/ha.
(§11) For treatments comprised of formulated compounds, measured amounts of compounds were placed individually in 25 mL glass vials and diluted in a volume of 1.25% (v/v) Agri-Dex® crop oil concentrated to obtain 12× stock solutions. […]
(§12) For treatments comprised of formulated and technical compounds, weighed amounts of the technical materials were placed individually in 25 mL glass vials and dissolved in a volume of 97:3 v/v acetone/DMSO to obtain 12× stock solutions, and measured amounts of the formulated compounds were placed individually in 25 mL glass vials and diluted in a volume of 1.5% (v/v) crop oil concentrate or water to obtain 12× stock solutions. […]

ECHCG [1] = experiment: In-water applied greenhouse weed control, transplanted paddy rice system; type: in vivo, Echinochloa crusgalli (L.) Beauv.; conditions: in-water application; Oxaziclomafone 20 gai/ha alone
Procedure: Weed seeds or nutlets of the desired test plant species were planted in puddled soil (mud) prepared by mixing a shredded, non-sterilized mineral soil (50.5 percent silt, 25.5 percent clay, and 24 percent sand, with a pH of about 7.6 and an organic matter content of about 2.9 percent) and water at a 1:1 volumetric ratio. The prepared mud was dispensed in 365 mL aliquots into 16-ounce (oz.) non-perforated plastic pots with a surface area of 86.59 square centimeters (cm^2) leaving a headspace of 3 centimeters (cm) in each pot. Mud was allowed to dry overnight prior to planting or transplanting. Rice seeds were planted in Sun Gro MetroMix® 306 planting mixture, which typically has a pH of 6.0 to 6.8 and an organic matter content of about 30 percent, in plastic plug trays. Seedlings at the second or third leaf stage of growth were transplanted into 840 mL of mud contained in 32-oz. non-perforated plastic pots with a surface area of 86.59 cm^2 4 days prior to herbicide application. The paddy was created by filling the headspace of the pots with 2.5 to 3 cm of water. […]
as §4
For formulated compounds, a measured amount was placed in an individual 100 or 200 mL glass vial and was dissolved in a volume of 1.25% (v/v) Agri-Dex® crop oil concentrate to obtain application solutions. […]
as §8

SCPJU = experiment: Postemergence foliar-applied greenhouse weed control, direct-seeded rice system; type: in vivo, Schoenoplectus juncoides (Roxb.) Palla; conditions: Oxaziclomefone 6.25 gai/ha alone
Excerpt: as §9, §10, §11, §12

ECHCO = experiment: as above; type: in vivo, Echinochloa colona (L.) Link
Excerpt: (§13) Seeds or nutlets of the desired test plant species were planted in a soil matrix prepared by mixing a loam or sandy loam soil (e.g., 28.6 percent silt, 18.8 percent clay, and 52.6 percent sand, with a pH of about 5.8 and an organic matter content of about 1.8 percent) and calcareous grit in an 80 to 20 ratio. The soil matrix was contained in plastic pots with a volume of 1 quart and a surface area of 83.6 square centimeters (cm^2). When required to ensure good germination and healthy plants, a fungicide treatment and/or other chemical or physical treatment was applied. The plants were grown for 8-22 days in a greenhouse with an approximate 14 h photoperiod which was maintained at about 29° C. during the day and 26° C. during the night. Nutrients (Peters Excel® 15-5-15 5-Ca 2-Mg and iron chelate) were applied in the irrigation solution as needed and water was added on a regular basis. Supplemental lighting was provided with overhead metal halide 1000-Watt lamps as necessary. The plants were employed for testing when they reached the first through fourth true leaf stage.
as §2, with “(Compound A),” for “(compound A)”, “SC (suspension concentrate),” for “SC”
(§14) Other herbicidal components were applied on an active ingredient basis and included diamuron formulated as an EC (emulsifiable concentrate) and oxaziclomefone (technical grade material).
as §10
(§15) For treatments comprised of formulated compounds, measured amounts of compounds were placed individually in 25 mL glass vials and diluted in a volume of 1.25% (v/v) Agri-Dex® crop oil concentrated to obtain 12× stock solutions. […] Application solutions were prepared by adding an appropriate amount of each stock solution (e.g., 1 mL) and diluted to the appropriate final concentrations with the addition of 10 mL of an aqueous mixture of 1.25% (v/v) crop oil concentrate so that the final spray solutions contained 1.25+/−0.05% (v/v) crop oil concentrate.
(§16) For treatments comprised of technical compounds, weighed amounts can be placed individually in 25 mL glass vials and dissolved in a volume of 97:3 v/v acetone/DMSO to obtain 12× stock solutions. […] Application solutions can be prepared by adding an appropriate amount of each stock solution (e.g., 1 mL) and diluted to the appropriate final concentrations with the addition of 10 mL of an aqueous mixture of 1.5% (v/v) crop oil concentrate so that the final spray solutions contain 1.25% (v/v) crop oil concentrate. When technical materials are used, the concentrated stock solutions can be added to the spray solutions so that the final acetone and DMSO concentrations of the application solutions are 16.2% and 0.5%, respectively.
(§17) For treatments comprised of formulated and technical compounds, weighed amounts of the technical materials were placed individually in 25 mL glass vials and dissolved in a volume of 97:3 v/v acetone/DMSO to obtain 12× stock solutions, and measured amounts of the formulated compounds were placed individually in 25 mL glass vials and diluted in a volume of 1.5% (v/v) crop oil concentrate or water to obtain 12× stock solutions. […] Application solutions were prepared by adding an appropriate amount of each stock solution (e.g., 1 mL) and diluted to the appropriate final concentrations with the addition of an appropriate amount of an aqueous mixture of 1.5% (v/v) crop oil concentrate so that the final spray solutions contained 1.25% (v/v) crop oil concentrate. […]

BRAPP = experiment: as above; type: in vivo; conditions: Compound A Acid 4.38 gae/ha alone
Excerpt: as §13
as §2, with “(Compound A),” for “(compound A)”, “SC (suspension concentrate),” for “SC”
as §14, §10, §15, §16, §17

LEFCH = experiment: as above; type: in vivo, Leptochloa chinensis (L.) Nees
Excerpt: as §13
as §2, with “(Compound A),” for “(compound A)”, “SC (suspension concentrate),” for “SC”
as §14, §10, §15, §16, §17

ECHOR = experiment: In-water applied greenhouse weed control, transplanted paddy rice system; type: in vivo, Echinochloa oryzoides (Ard.) Fritsch; conditions: in-water application
Procedure: as §1, §2, §3, §4, §5, §6, §7, §8

ECHCG [2] = experiment: Postemergence foliar-applied greenhouse weed control, direct-seeded rice system; type: in vivo, Echinochloa crusgalli (L.) Beauv.
Excerpt: as §13
as §2, with “(Compound A),” for “(compound A)”, “SC (suspension concentrate),” for “SC”
as §14, §10, §15, §16, §17

IPOHE = experiment: as above; type: in vivo, Ipomoea hederacea Jacq.
Excerpt: as §13
as §2, with “(Compound A),” for “(compound A)”, “SC (suspension concentrate),” for “SC”
as §14, §10, §15, §16, §17

[3] = Compound A Acid 4.38 gae/ha alone
[4] = Compound A Acid 8.75 gae/ha alone
[5] = Compound A Acid 17.5 gae/ha alone
[6] = Compound A Acid 35 gae/ha alone

CC1=C(c2ccccc2)C(=O)N(C(C)(C)c2cc(Cl)cc(Cl)c2)CO1 [Oxaziclomefone, 3-[1-(3,5-dichlorophenyl)-1-methylethyl]-2,3-dihydro-6-methyl-5-phenyl-4H-1,3-oxazin-4-one]
Visual Weed Control (%) - 21 DAA CYPRO Obs (CYPRO; Oxaziclomafone 20 gai/ha alone (Table 6)): 0% | Visual Weed Control (%) - 21 DAA CYPRO Obs (CYPRO; Oxaziclomafone 20 gai/ha alone (Table 7)): 0% | Visual Weed Control (%) - 21 DAA CYPRO Obs (CYPRO; Oxaziclomafone 40 gai/ha alone (Table 7)): 0% | Visual Weed Control (%) - 22 DAA CYPIR Obs (CYPIR): 0% | Visual Weed Control (%) - 21 DAA ECHCG Obs (ECHCG [1]): 80% | Visual Weed Control (%) - 22 DAA SCPJU Obs (SCPJU): 0%

COc1c(Cl)ccc(-c2nc(C(=O)O)c(Cl)c(N)c2F)c1F [Compound A Acid, 4-amino-3-chloro-6-(4-chloro-2-fluoro-3-methoxyphenyl)-5-fluoropyridine-2-carboxylic acid]
Visual Weed Control (%) - 20 DAA ECHCO Obs (ECHCO; [3]): 50% | Visual Weed Control (%) - 20 DAA ECHCO Obs (ECHCO; [4]): 75% | Visual Weed Control (%) - 20 DAA ECHCO Obs (ECHCO; [5]): 90% | Visual Weed Control (%) - 20 DAA BRAPP Obs (BRAPP): 10% | Visual Weed Control (%) - 21 DAA CYPRO Obs (CYPRO; [5]): 40% | Visual Weed Control (%) - 21 DAA CYPRO Obs (CYPRO; [6]): 70% | Visual Weed Control (%) - 20 DAA LEFCH Obs (LEFCH; [3]): 0% | Visual Weed Control (%) - 20 DAA LEFCH Obs (LEFCH; [4]): 20% | Visual Weed Control (%) - 20 DAA LEFCH Obs (LEFCH; [5]): 50% | Visual Weed Control (%) - 20 DAA ECHOR Obs (ECHOR; [4]): 20% | Visual Weed Control (%) - 20 DAA ECHOR Obs (ECHOR; [5]): 30% | Visual Weed Control (%) - 20 DAA ECHOR Obs (ECHOR; [6]): 40% | Visual Weed Control (%) - 20 DAA ECHCG Obs (ECHCG [2]; [3]): 25% | Visual Weed Control (%) - 20 DAA ECHCG Obs (ECHCG [2]; [4]): 80% | Visual Weed Control (%) - 20 DAA IPOHE Obs (IPOHE; [3]): 10% | Visual Weed Control (%) - 20 DAA IPOHE Obs (IPOHE; [4]): 35%
